Data from paper PMC7612645 (2021).

System: US (RNA, single strand) UUUUUACCUAUCUCUUUUUCUCU
Assay: SPR
Details: 250 mM NaCl; 20 mM HEPES pH 7.5, 2% DMSO, 0.1% Tween20, 37 °C; trace shown at 40 nM compound

binding: no
SMILES: Cc1nc2nc(CN)nn2c(C)c1CCC(=O)Nc1ccc(F)c(Cl)c1
